# Tested on: TFEB
# Assay: TFEB nuclear translocation assay
# Assay type: cell-based
# Details: Homo sapiens; HeLa wt or HeLa TRPML1 KO cells, treated for 2 hrs; ratio of nuclear to ring-region TFEB intensity
# Protocol: For the TFEB nuclear translocation assay, HeLa wt or HeLa TRPML1 KO cells were plated at 2700 cells/well into black-walled, 384-well Cell carrier Ultra tissue culture treated plates in complete media and incubated overnight. The next day, cells are treated for 2 hrs with compounds and incubated at 37° C. Cells were then fixed for 30 minutes at room temperature in 4% final PFA and washed five times with 90 μL PBS. PBS is aspirated from the wells and the cells are blocked with 7.5 μL blocking buffer (1.1 PBS/Odyssey block buffer containing 0.1% triton x-100 and 1% goat serum). After 30-60 minutes of block, 7.5 μL of primary anti-TFEB (rabbit) antibody is added for a final dilution of 1:200 antibody in 15 μL blocking buffer. Plates are incubated overnight at 4° C. The following day, plates are washed again into PBS, 90 μL with 5 washes, all PBS is aspirated from the wells and the cells are incubated for 1 hr in 1:1000 goat-anti rabbit Alexa 488 secondary antibody, also containing 10 μg/mL Hoechst 33342. After the 1 hr RT incubation, plates are washed a final time into PBS, sealed with foil and imaged with an automated epifluorescence microscopy (PerkinElmer Operetta CLS). Four different fields were imaged per well using ×20 magnification for DAPI and FITC filter sets. Images were quantified using PerkinElmer Harmony software, briefly: apply flatfield correction (basic/advanced) for input images. Use the Find Nuclei building block with channel set at Hoechst to find the nuclei. Use the Find cytoplasm building block with channel set to Alexa 488 to find the cytoplasm. Use select cell region with Channel set at Alexa 488 and region of interest as Nuclei and define outer border at 0 μm and inner at 45 μm to cover complete nuclei. Use select cell region with Channel set at Alexa 488 and region of interest as ring region and define outer border at −5 μm and inner at 0 μm to define a ring around the nucleus. Use the find calculate intensity parameter to calculate intensity of the nuclear region and the ring region. Define results as Number of nuclei and ratio of A/B where A is Intensity of Nuclei and B is intensity of the ring region.
row,Structure (SMILES),EC50
1,"O=S(=O)(Cc1ccccc1)N1CC2(CCCC2)c2ccccc21 [Compound I-1, 1′-phenylmethanesulfonyl-1′,2′-dihydrospiro[cyclopentane-1,3′-indole]]",8.01 to 9.99 µM
2,"CC(C)C(=O)c1ccc(S(=O)(=O)N2CC3(CCCC3)c3ccccc32)cc1 [Compound I-3, 1-[4-({1′,2′-dihydrospiro[cyclopentane-1,3′-indol]-1′-yl}sulfonyl)phenyl]-2-methylpropan-1-one]",2.01 to 8 µM
3,"CC(C)c1ccc(S(=O)(=O)N2CC3(CCCC3)c3ccccc32)cc1 [Compound I-4, 1′-[4-(propan-2-yl)benzenesulfonyl]-1′,2′-dihydrospiro[cyclopentane-1,3′-indole]]",8.01 to 9.99 µM
4,"CN1Cc2cc(S(=O)(=O)N3CC4(CCCC4)c4ccccc43)ccc2OC1=O [Compound I-6, 6-({1′,2′-dihydrospiro[cyclopentane-1,3′-indol]-1′-yl}sulfonyl)-3-methyl-3,4-dihydro-2H-1,3-benzoxazin-2-one]",≥ 10 µM
5,"COC(CS(=O)(=O)N1CC2(CCCC2)c2ccccc21)c1ccc(F)cc1 (stereo not drawn) [Compound I-7, 1′-[2-(4-fluorophenyl)-2-methoxyethanesulfonyl]-1′,2′-dihydrospiro[cyclopentane-1,3′-indole]]",≥ 10 µM
6,"COC1Cc2ccc(S(=O)(=O)N3CC4(CCCC4)c4ccccc43)cc2C1 (stereo not drawn) [Compound I-8, 1′-[(2-methoxy-2,3-dihydro-1H-inden-5-yl)sulfonyl]-1′,2′-dihydrospiro[cyclopentane-1,3′-indole]]",≥ 10 µM
7,"CS(=O)(=O)c1ccc(S(=O)(=O)N2CC3(CCCC3)c3ccccc32)cc1 [Compound I-9, 1′-(4-methanesulfonylbenzenesulfonyl)-1′,2′-dihydrospiro[cyclopentane-1,3′-indole]]",2.01 to 8 µM
8,"CS(=O)(=O)c1ccc(S(=O)(=O)N2CC3(CCCC3)c3ccccc32)cc1F [Compound I-10, 1′-(3-fluoro-4-methanesulfonylbenzenesulfonyl)-1′,2′-dihydrospiro[cyclopentane-1,3′-indole]]",2.01 to 8 µM
9,"Cc1cc(S(=O)(=O)N2CC3(CCCC3)c3ccccc32)ccc1F [Compound I-11, 1′-(4-fluoro-3-methylbenzenesulfonyl)-1′,2′-dihydrospiro[cyclopentane-1,3′-indole]]",≥ 10 µM
10,"Cc1ccc(CS(=O)(=O)N2CC3(CCCC3)c3ccccc32)cc1 [Compound I-12, 1′-[(4-methylphenyl)methanesulfonyl]-1′,2′-dihydrospiro[cyclopentane-1,3′-indole]]",≥ 10 µM
11,"Cc1ccc(S(=O)(=O)N2CC3(CCCC3)c3ccccc32)cc1 [Compound I-13, 1′-(4-methylbenzenesulfonyl)-1′,2′-dihydrospiro[cyclopentane-1,3′-indole]]",≥ 10 µM
12,"Cc1ccc(CS(=O)(=O)N2CC3(CCCC3)c3ccccc32)cc1C [Compound I-14, 1′-[(3,4-dimethylphenyl)methanesulfonyl]-1′,2′-dihydrospiro[cyclopentane-1,3′-indole]]",2.01 to 8 µM
13,"Cc1ccc(S(=O)(=O)N2CC3(CCCC3)c3ccccc32)cc1F [Compound I-15, 1′-(3-fluoro-4-methylbenzenesulfonyl)-1′,2′-dihydrospiro[cyclopentane-1,3′-indole]]",8.01 to 9.99 µM
14,"Cc1cccc(CS(=O)(=O)N2CC3(CCCC3)c3ccccc32)c1 [Compound I-16, 1′-[(3-methylphenyl)methanesulfonyl]-1′,2′-dihydrospiro[cyclopentane-1,3′-indole]]",≥ 10 µM
15,"O=S(=O)(c1cnn(C2CCC2)c1)N1CC2(CCCC2)c2ccccc21 [Compound I-17, 1′-[(1-cyclobutyl-1H-pyrazol-4-yl)sulfonyl]-1′,2′-dihydrospiro[cyclopentane-1,3′-indole]]",≥ 10 µM
16,"O=S(=O)(c1cnn(C2CCCCC2)c1)N1CC2(CCCC2)c2ccccc21 [Compound I-18, 1′-[(1-cyclohexyl-1H-pyrazol-4-y1)sulfonyl]-1′,2′-dihydrospiro[cyclopentane-1,3′indole]]",2.01 to 8 µM
17,O=S(=O)(c1cnn(C2CCOCC2)c1)N1CC2(CCCC2)c2ccccc21 [Compound I-19],≥ 10 µM
18,"O=S(=O)(c1cncc(C(F)F)c1)N1CC2(CCCC2)c2ccccc21 [Compound I-20, 1′-{[S-(difluoromethyl)pyridin-3-yl]sulfonyl}-1′,2′-dihydrospiro[cyclopentane-1,3′-indole]]",≥ 10 µM
19,"O=S(=O)(c1cc(C2OCCO2)cs1)N1CC2(CCCC2)c2ccccc21 [Compound I-21, 1′-{[4-(1,3-dioxolan-2-yl)thiophen-2-yl]sulfonyl}-1′,2′-dihydrospiro[cyclopentane-1,3′-indole]]",≥ 10 µM
20,"O=S(=O)(c1ccc(C2OCCO2)cc1F)N1CC2(CCCC2)c2ccccc21 [Compound I-22, 1′-[4-(1,3-dioxolan-2-yl)-2-fluorobenzenesulfonyl]-1′,2′-dihydrospiro[cyclopentane-1,3′-indole]]",≥ 10 µM
21,"O=S(=O)(c1ccc(OC(F)F)c(F)c1)N1CC2(CCCC2)c2ccccc21 [Compound I-23, 1′-[4-(difluoromethoxy)-3-fluorobenzenesulfonyl]-1′,2′-dihydrospiro[cyclopentane-1,3′-indole]]",≥ 10 µM
22,"O=S(=O)([C@H]1C[C@@H]1c1cccc(F)c1)N1CC2(CCCC2)c2ccccc21 [Compound I-24, 1′{[(1S,2R)-2-(3-fluorophenyl)cyclopropyl]sulfonyl}-1′,2′-dihydrospiro[cyclopentane-1,3′-indole]]",≥ 10 µM
23,"O=S(=O)(Cc1cccc(F)c1)N1CC2(CCCC2)c2ccccc21 [Compound I-25, 1′-[(3-fluorophenyl)methanesulfonyl]-1′,2′-dihydrospiro[cyclopentane-1,3′-indole]]",2.01 to 8 µM
24,"O=S(=O)(c1cccc(C2CC2)c1)N1CC2(CCCC2)c2ccccc21 [Compound I-26, 1′-(3-cyclopropylbenzenesulfonyl)-1′,2′-dihydrospiro[cyclopentane-1,3′-indole]]",2.01 to 8 µM
25,"O=S(=O)(c1cccc(C2OCCO2)c1)N1CC2(CCCC2)c2ccccc21 [Compound I-27, 1′-[3-(1,3-dioxolan-2-yl)benzenesulfonyl]-1′,2′-dihydrospiro[cyclopentane-1,3′-indole]]",2.01 to 8 µM
26,"O=S(=O)(c1ccc(C(F)F)cc1)N1CC2(CCCC2)c2ccccc21 [Compound I-28, 1′-[4-(difluoromethyl)benzenesulfonyl]-1′,2′-dihydrospiro[cyclopentane-1,3′-indole]]",≥ 10 µM
27,"O=S(=O)(c1ccc(C2CC2)cc1)N1CC2(CCCC2)c2ccccc21 [Compound I-29, 1′-(4-cyclopropylbenzenesulfonyl)-1′,2′-dihydrospiro[cyclopentane-1,3′-indole]]",2.01 to 8 µM
28,"O=S(=O)(Cc1ccc(F)cc1)N1CC2(CCCC2)c2ccccc21 [Compound I-30, 1′-[(4-fluorophenyl)methanesulfonyl]-1′,2′-dihydrospiro[cyclopentane-1,3′-indole]]",≥ 10 µM
29,"O=S(=O)(c1ccc(Br)cc1)N1CC2(CCCC2)c2ccccc21 [Compound I-32, 1′-(4-bromobenzenesulfonyl)-1′,2′-dihydrospiro[cyclopentane-1,3′-indole]]",≥ 10 µM
30,"O=S(=O)(c1ccc(C2CC2)s1)N1CC2(CCCC2)c2ccccc21 [Compound I-33, 1′-[(5-cyclopropylthiophen-2-yl)sulfonyl]-1′,2′-dihydrospiro[cyclopentane-1,3′-indole]]",≥ 10 µM

# Reference: patent US20230416262A1, “TRPML MODULATORS” (Casma Therapeutics, Inc., priority 2020, published 2023)
